Measurements: EP0973746B1, “SUBSTITUTED 3-CYANO QUINOLINES” (Wyeth Holdings Corporation, priority 1997, dated 1998)
Converted amounts (≈) assume the structure as drawn. “And” between values parts separate entries of the source, which are not always exact repeats. Identical values can stand only once. Like-named read-outs stand apart in the source and are kept apart here.

Assays:
[1] = system: SW620; assay: Inhibition of cancer cell growth as measured by cell number, SW620; type: cell-based, human; settings: for IC50: Homo sapiens, SW-620, 48 h;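 as to all read-outs here: SW620 was included as a cell line with little or no EGFR or HER2/neu expression, in contrast to receptor-overexpressing lines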
Excerpt: (§1) The cell lines were chosen since they overexpressed epidermal growth factor receptor (EGFR) (i.e. A431) or HER2/neu (SKBR3), or had little to no expression of the these receptors (SW620, LOX, MCF7).

[2] = system: A431; assay: Inhibition of cancer cell growth as measured by cell number, A431; type: cell-based, human; settings: for IC50: Homo sapiens, A-431, 48 h;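 as to all read-outs here: human A431 line, picked because it overexpresses epidermal growth factor receptor (EGFR)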
Excerpt: as §1

[3] = system: SKBR3; assay: Inhibition of cancer cell growth as measured by cell number, SKBR3; type: cell-based, human; settings: for IC50: Homo sapiens;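 as to all read-outs here: SK-BR-3 cells were selected as a line overexpressing HER2/neu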
Excerpt: as §1

[4] = biological target: T1, His-tagged cytoplasmic domain of EGFR (Homo sapiens, UniProt P00533); assay: Inhibition of Epidermal Growth Factor Receptor Kinase (EGF-R) using recombinant enzyme; type: biochemical;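 also: radiometric kinase assay measuring radiolabeled phosphate transfer from ATP onto the peptide tyrosine by scintillation counting, control is reaction without compound, background subtracted, IC50 from dose-response curve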
T1 construct: containing the EGFR cDNA encoding amino acids 645 - 1186 preceded by Met-Ala-(His)6; made in house; host or cells: Sf9 cells, recombinant baculovirus vHcEGFR52

[5] = biological target: recombinant human MEK 1 (MAPKK) and recombinant human ERK2 (MAPK); assay: Mitogen Activated Protein Kinase (MAPK) assay, two component coupled MEK 1 / ERK2; type: biochemical; settings: separate entries for the same compound = evaluated more than one time;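 also: MEK 1-activated ERK2 phosphorylates MBP or Myc peptide with 33P-ATP, filter capture and scintillation counting, inhibitor preincubated with ERK2 30 min at 0 °C, inhibition relative to uninhibited control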
[6] = recombinant enzyme, RR-SRC peptide, average of the number of tests, read-out: IC50
[7] = read-out: IC50 SW620, cell number, Sulforhodamine B, 48 hours exposure, Table 8
[8] = read-out: IC50 A431, cell number, Sulforhodamine B, 48 hours exposure, Table 8
[9] = SK-BR-3, 48 h, read-out: IC50 SKBR3, cell number, Sulforhodamine B, 48 hours exposure, Table 8
[10] = cell number, Sulforhodamine B, 48 hours exposure, Table 8
[11] = cell number, Sulforhodamine B, 48 hours exposure, Table 8, read-out: IC50 SW620
[12] = cell number, Sulforhodamine B, 48 hours exposure, Table 8, read-out: IC50 A431
[13] = SK-BR-3, cell number, Sulforhodamine B, 48 hours exposure, Table 8, read-out: IC50 SKBR3

Molecule	IC50 [4, 6]	IC50 [5]	IC50 [1, 7]	IC50 [2, 8]	IC50 [3, 9]	further results
CCCN(CC#CC(=O)Nc1ccc2ncc(C#N)c(Nc3cccc(Br)c3)c2c1)CCC [Example 170]	60 nM	> 100000 nM				IC50 SW620 [1]: 0.1 µg/mL (≈ 0.198 µM); IC50 A431 [2]: 0.03 µg/mL (≈ 0.0595 µM); IC50 SKBR3 [3]: 0.03 µg/mL (≈ 0.0595 µM)
CN(C)C/C=C\C(=O)Nc1ccc2ncc(C#N)c(Nc3ccc(F)c(Cl)c3)c2c1 [Example 184, N-[4-[(3-Chloro-4-fluorophenyl)amino]-3-cyano-6-quinolinyl]-4-dimethylamino-(Z)-2-butenamide]	1700 nM		0.463 µg/mL (≈ 1.09 µM)	0.158 µg/mL (≈ 0.373 µM)	0.3 µg/mL (≈ 0.708 µM)	
CCN(CC)CC#CC(=O)Nc1ccc2ncc(C#N)c(Nc3ccc(F)c(Cl)c3)c2c1 [Example 189, N-[4-[(3-Chloro-4-fluorophenyl)amino]-3-cyano-6-quinolinyl]-4-diethylamino-2-butynamide]	2 nM	50000 nM	0.1 µg/mL (≈ 0.222 µM)	0.04 µg/mL (≈ 0.0889 µM)	0.03 µg/mL (≈ 0.0667 µM)	
CC#CC(=O)Nc1ccc2ncc(C#N)c(Nc3ccc(Sc4ccccc4)c(Cl)c3)c2c1 [Example 157]	45 nM	90000 nM	4.17 µg/mL (≈ 8.89 µM)	3.26 µg/mL (≈ 6.95 µM)	2.6 µg/mL (≈ 5.55 µM)	
COc1cc2ncc(C#N)c(Nc3cccc(Br)c3)c2cc1NC(=O)C=CCN(C)C [Example 198, 4-Dimethylamino-but-2-enoic acid [4-(3-brom-phenylamino)-3-cyano-7-methoxy-quinolin-6yl]-amide]						IC50 SW620 [1, 10]: 0.4 µg/mL (≈ 0.833 µM); IC50 A431 [2, 10]: 0.002 µg/mL (≈ 0.00416 µM); IC50 SKBR3 [3, 10]: 0.03 µg/mL (≈ 0.0625 µM); IC50 [4]: 0.008 nM
COC/C=C\C(=O)Nc1ccc2ncc(C#N)c(Nc3ccc(F)c(Cl)c3)c2c1 [Example 185, N-[4-[(3-Chloro-4-fluorophenyl)amino]-3-cyano-6-quinolinyl]-4-methoxy-(Z)-2-butenamide]	≥ 10000 nM					IC50 [1, 11]: 2.18 µg/mL (≈ 5.31 µM); IC50 [2, 12]: 0.34 µg/mL (≈ 0.828 µM); IC50 [3, 13]: 1.11 µg/mL (≈ 2.7 µM)
COc1cc2ncc(C#N)c(Nc3cccc(Br)c3)c2cc1NC(=O)C=CCCl [Example 347, N-{4-[(3-Bromophenyl)amino]-3-cyano-7-methoxy-6-quinolinyl} -4-chloro-2-butenamide]	40 nM					IC50 [1, 11]: 0.2 µg/mL (≈ 0.424 µM); IC50 [2, 12]: 0.04 µg/mL (≈ 0.0848 µM); IC50 [3, 13]: 0.2 µg/mL (≈ 0.424 µM)
CCN(CC)CC=CC(=O)Nc1ccc2ncc(C#N)c(Nc3ccc(F)c(Br)c3)c2c1 [Example 173, N-{4-[(3-Bromo-4-fluorophenyl)amino]-3-cyano-6-quinolinyl}-4-diethylamino-2-butenamide]	30 nM	8000 nM				
CC#CC(=O)Nc1ccc2ncc(C#N)c(Nc3cccc(C)c3)c2c1 [Example 132, N-{3-Cyano-4-[(3-methylphenyl)amino]-6-quinolinyl}-2-butynamide]	600 nM	> 100000 nM				
CCOc1cc2ncc(C#N)c(NCc3ccc(OC)c(OC)c3)c2cc1OCC [Example 63, 4-(3,4-Dimethoxyphenylmethylamino)-6,7-diethoxy-3-quinolinecarbonitrile]	≥ 10000 nM	> 100000 nM				IC50 [1, 11]: 0.208 µg/mL (≈ 0.51 µM); IC50 [2, 12]: 0.095 µg/mL (≈ 0.233 µM); IC50 [3, 13]: 0.144 µg/mL (≈ 0.353 µM)
CNCC=CC(=O)Nc1ccc2ncc(C#N)c(Nc3cccc(Br)c3)c2c1 [Example 101, 4-Methylamino-but-2-enoic acid [4-(3-bromophenylamino)-3-cyano-quinolin-6-yl]-amide]	100 nM	20000 nM				IC50 [1, 11]: > 10 µg/mL; IC50 [2, 12]: > 10 µg/mL; IC50 [3, 13]: > 10 µg/mL
N#Cc1cnc2ccc(NC(=O)/C=C/Cl)cc2c1Nc1cccc(Br)c1 [Example 326, N-[4-(3-Bromo-phenylamino)-3-cyano-quinolin-6-yl]-3-chloro-(E) acrylamide]	0.05 nM	35000 nM				
N#Cc1cnc2ccc(N)cc2c1Nc1cccc(I)c1 [Example 130, 6-Amino-4-[(3-iodophenyl)amino]-3-quinolinecarbonitrile]	100 nM	> 100000 nM				
COc1cc2ncc(C#N)c(Nc3cccc(CS)c3)c2cc1OC [Example 270]	10 nM	> 100000 nM				
CCN(CC)CC=CC(=O)Nc1cc2c(Nc3cccc(Br)c3)c(C#N)cnc2cc1OC [Example 199, 4-Diethylamino-but-2-enoic acid [4-(3-bromo-phenylamino)-3-cyano-7-methoxy-quinolin-6-yl]-amide]	0.5 nM					IC50 [1, 11]: 0.433 µg/mL (≈ 0.852 µM); IC50 [2, 12]: 0.048 µg/mL (≈ 0.0944 µM); IC50 [3, 13]: 0.076 µg/mL (≈ 0.149 µM)
4-Dimethylamino-but-2-enoic acid [4-(3-bromophenylamino)-3-cyano-quinolin-6-yl]-amide [Example 99]	30 nM					IC50 A431 [2, 10]: 0.3 µg/mL and 0.159 µg/mL; IC50 SKBR3 [3, 10]: 0.1 µg/mL and 0.078 µg/mL

Molecule	IC50 [4, 6]	IC50 [5]	IC50 [1, 7]	IC50 [2, 8]	IC50 [3, 9]	further results
COc1cc2ncc(C#N)c(Nc3cccc(N)c3)c2cc1OC [Example 264, 4-(3-Aminophenylamino)-6,7-dimethoxy-3-quinolinecarbonitrile]	500 nM	3000 nM				
N#Cc1cccc(Nc2c(C#N)cnc3ccc(NC(=O)C#CCN4CCCCC4)cc23)c1 [Example 161, N-{3-Cyano-4-[(3-cyanophenyl)amino]-6-quinolinyl}-4-piperidino-2-butynamide]	0.35 nM	55000 nM	0.2 µg/mL (≈ 0.46 µM)	0.1 µg/mL (≈ 0.23 µM)	0.04 µg/mL (≈ 0.0921 µM)	
CCN(CC)CC=CC(=O)Nc1ccc2ncc(C#N)c(Nc3ccc(F)c(Cl)c3)c2c1 [Example 146, N-{4-[(3-Chloro-4-fluorophenyl)amino]-3-cyano-6-quinoliny}-4-diethylamino-2-butenamide]	30 nM	6000 nM				IC50 [1, 11]: 0.6 µg/mL (≈ 1.33 µM); IC50 [2, 12]: 0.03 µg/mL (≈ 0.0664 µM); IC50 [3, 13]: 0.03 µg/mL (≈ 0.0664 µM)
CCN(CC)CC=CC(=O)Nc1cc2c(Nc3ccc(F)c(Br)c3)c(C#N)cnc2cc1OC [Example 209, 4-Diethylamino-but-2-enoic acid [4-(3-bromo-4-fluorophenylamino)-3-cyano-7-methoxy-quinolin-6-yl]-amide]	5 nM	9000 nM	0.38 µg/mL (≈ 0.722 µM)	0.113 µg/mL (≈ 0.215 µM)	0.048 µg/mL (≈ 0.0912 µM)	
COCC#CC(=O)Nc1ccc2ncc(C#N)c(Nc3ccc(F)c(Cl)c3)c2c1 [Example 194, N-[4-[-(3-Chloro-4-fluorophenyl)amino]-3-cyano-6-quinolinyl]-4-methoxy-2-butynamide]	1.7 nM	> 100000 nM	0.2 µg/mL (≈ 0.489 µM)	0.1 µg/mL (≈ 0.245 µM)	0.2 µg/mL (≈ 0.489 µM)	
C#Cc1cccc(Nc2c(C#N)cnc3ccc(NC(=O)C#CCN4CCCCC4)cc23)c1 [Example 166, N-{3-cyano-4-[(3-ethynylphenyl)amino]-6-quinolinyl)-4-piperidino-2-butynamide]	20 nM	> 100000 nM	0.04 µg/mL (≈ 0.0923 µM)	0.02 µg/mL (≈ 0.0461 µM)	0.02 µg/mL (≈ 0.0461 µM)	
C=CC(=O)Nc1ccc2ncc(C#N)c(Nc3ccc(F)c(Cl)c3)c2c1 [Example 144, N-{4-[(3-Chloro-4-fluorophenyl)amino]-3-cyano-6-quinolinyl}-2-propenamide]	65 nM	40000 nM				
CC#CC(=O)Nc1ccc2ncc(C#N)c(Nc3ccc(F)c(Cl)c3)c2c1 [Example 143, N-{4-[(3-Chloro-4-fluoro-phenyl)amino]-3-cyano-6-quinolinyl}-2-butynamide]	30 nM	40000 nM				
COc1cc2ncc(C#N)c(Nc3cccc(Br)c3)c2cc1NC(=O)C#CCN(C)C [Example 227, 4-Dimethylamino-but-2-ynoic acid [4-(3-bromo-phenylamino)-3-cyano-7-methoxy-quinol-6-yl]-amide]	10 nM		0.1 µg/mL (≈ 0.209 µM)	0.02 µg/mL (≈ 0.0418 µM)	0.2 µg/mL (≈ 0.418 µM)	
C=CC(=O)Nc1ccc2ncc(C#N)c(Nc3cccc(C#N)c3)c2c1 [Example 160, N-[3-Cyano-4-[(3-cyanophenyl)amino]-6-quinolinyl}-2-propenamide]	2 nM	30000 nM	2.3 µg/mL (≈ 6.78 µM)	0.2 µg/mL (≈ 0.589 µM)	0.5 µg/mL (≈ 1.47 µM)	
C=CC(=O)Nc1ccc2ncc(C#N)c(Nc3ccc(Br)c(Br)c3)c2c1 [Example 380, N-[3-Cyano-4-(3,4-dibromophenylamino)quinolin-6-yl]acrylamide]	7 nM	> 100000 nM				
COc1cccc(Nc2c(C#N)cnc3ccc(NC(=O)C#CCN4CCCCC4)cc23)c1 [Example 140, N-{3-cyano-4-[(3-methoxyphenyl)amino]-6-quinolinyl}-4-piperidino-2-butynamide]	0.6 nM	> 100000 nM	0.1 µg/mL (≈ 0.228 µM)	0.02 µg/mL (≈ 0.0455 µM)	0.02 µg/mL (≈ 0.0455 µM)	
CN(C)CC=CC(=O)Nc1ccc2ncc(C#N)c(Nc3ccc(F)c(Br)c3)c2c1 [Example 172, N-{4-[(3-Bromo-4-fluorophenyl)amino]-3-cyano-6-quinolinyl} -4-dimethylamino-2-butenamide]	5 nM	90000 nM				IC50 [1, 11]: 1.59 µg/mL (≈ 3.4 µM); IC50 [2, 12]: 0.255 µg/mL (≈ 0.544 µM); IC50 [3, 13]: 0.067 µg/mL (≈ 0.143 µM)
COc1cc2ncc(C#N)c(Nc3ccc(F)c(Br)c3)c2cc1NC(=O)C=CCN1CCOCC1 [Example 175, N-{4-[(3-Bromo-4-fluorophenyl)amino]-3-cyano-7-methoxy-6-quinolinyl}-4-morpholino-2-butenamide]	300 nM		4.95 µg/mL (≈ 9.16 µM)	0.144 µg/mL (≈ 0.266 µM)	0.18 µg/mL (≈ 0.333 µM)	
Cc1cccc(Nc2c(C#N)cnc3ccc(N)cc23)c1 [Example 133, 6-Amino-4-[(3-methylphenyl)amino]-3-quinolinecarbonitrile]	6 nM	> 100000 nM				
